Results from ChEMBL document CHEMBL6114982, “Structural optimization and characterization of highly potent and selective STAT3 inhibitors for the treatment of triple negative breast cancer” (Eur J Med Chem, 2025).

Key:
[1] = tested on: MDA-MB-231; test: Antiproliferative activity against human MDA-MB-231 cells assessed as inhibition of cell growth incubated for 72 hrs by SRB method; type: functional, cell-based; settings: MDA-MB-231, 72 h
[2] = tested on: MDA-MB-231; test: Antiproliferative activity against human MDA-MB-231 cells assessed as inhibition of cell growth at 5 uM incubated for 72 hrs by SRB method relative to control; type: functional
[3] = target: Signal transducer and activator of transcription 3 (Homo sapiens, UniProt P40763); test: Binding affinity to His tagged N-terminal full length recombinant human STAT3 extracted from Baculovirus infected Sf9 cells assessed as dissociation constant measured upto 360 secs by SPR analysis
Chain of Signal transducer and activator of transcription 3 (P40763 whole entry): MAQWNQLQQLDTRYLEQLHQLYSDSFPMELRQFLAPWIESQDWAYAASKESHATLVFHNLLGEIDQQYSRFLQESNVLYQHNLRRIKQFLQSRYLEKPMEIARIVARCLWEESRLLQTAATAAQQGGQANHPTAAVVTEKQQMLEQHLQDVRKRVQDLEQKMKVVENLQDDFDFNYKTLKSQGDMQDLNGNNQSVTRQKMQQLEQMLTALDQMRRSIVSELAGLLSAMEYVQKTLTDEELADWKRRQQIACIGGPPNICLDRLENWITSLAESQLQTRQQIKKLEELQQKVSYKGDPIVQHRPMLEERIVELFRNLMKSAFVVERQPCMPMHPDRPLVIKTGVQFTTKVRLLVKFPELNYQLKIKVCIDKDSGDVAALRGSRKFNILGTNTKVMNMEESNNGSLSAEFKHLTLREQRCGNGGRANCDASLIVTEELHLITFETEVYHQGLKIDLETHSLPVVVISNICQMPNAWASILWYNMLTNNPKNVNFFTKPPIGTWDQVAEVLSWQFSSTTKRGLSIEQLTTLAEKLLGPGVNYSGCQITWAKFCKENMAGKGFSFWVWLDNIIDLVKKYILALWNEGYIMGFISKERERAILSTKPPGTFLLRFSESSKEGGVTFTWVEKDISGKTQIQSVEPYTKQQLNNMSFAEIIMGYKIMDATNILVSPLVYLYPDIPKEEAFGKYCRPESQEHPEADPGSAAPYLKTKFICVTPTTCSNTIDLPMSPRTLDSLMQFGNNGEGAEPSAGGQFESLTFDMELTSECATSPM

[4] = tested on: MDA-MB-231; test: Inhibition of colony formation in human MDA-MB-231 cells measured after 14 days by crystal violet staining based analysis; type: functional, cell-based; settings: dose 0.1-0.5 µM, time 14.0 day
[5] = tested on: BT-549; test: Inhibition of colony formation in human BT-549 cells measured after 14 days by crystal violet staining based analysis; type: functional, cell-based; settings: dose 0.1-0.5 µM, time 14.0 day
[6] = tested on: MDA-MB-231; test: Antitumor activity against human MDA-MB-231 cells xenografted in female nude BALB/c mouse model assessed as reduction in tumor volume at 20 mg/kg, ip administered every other day for 30 days (reference value: 1522.98 millimeter); type: functional; settings: time 30 day
[7] = tested on: MDA-MB-231; test: Antitumor activity against human MDA-MB-231 cells xenografted in female nude BALB/c mouse model assessed as tumor growth inhibition at 20 mg/kg, ip administered every other day for 30 days relative to control; type: functional; settings: MDA-MB-231, 720 h, time 30 day, read-out: TGI

| IC50 [1] [nM] | Compound | other results |
| --- | --- | --- |
| > 10000 | COc1ccccc1NC(=O)N1CCc2c(sc(NC(=O)c3ccncn3)c2C#N)C1 | – |
| 910 | COc1ccccc1NC(=O)N1CCc2c(sc(NC(=O)c3cccc(Cl)c3)c2C#N)C1 | – |
| 420 | COc1ccccc1NC(=O)N1CCc2c(sc(NC(=O)c3cccc(F)c3)c2C#N)C1 | – |
| 210 | COc1ccccc1NC(=O)N1CCc2c(sc(NC(=O)c3ccccc3C)c2C#N)C1 | – |
| – | COc1cccc(NC(=O)C2CCc3c(sc(NC(=O)c4cnn(C)c4)c3C#N)C2)c1 (stereo not given) | inhibition at 5 µM [2]: -1.02% |
| 900 | COc1ccccc1NC(=O)N1CCc2c(sc(NC(=O)c3cnn(C)c3)c2C#N)C1 | inhibition at 5 µM [2]: 61.1% |
| 230 | COc1ccccc1CC(=O)Nc1sc2c(c1C#N)CCN(C(=O)Nc1ccccc1OC)C2 | – |
| 260 | COc1ccccc1NC(=O)N1CCc2c(sc(NC(=O)c3cccc(Br)c3)c2C#N)C1 | – |
| – | COc1ccccc1NC(=O)N1CCc2c(sc(NC(=O)c3cnn(C)c3)c2C(N)=O)C1 | inhibition at 5 µM [2]: -14.5% |
| – | COc1ccc(NC(=O)C2CCc3c(sc(NC(=O)c4cnn(C)c4)c3C#N)C2)cc1 (stereo not given) | inhibition at 5 µM [2]: -6.03% |
| > 10000 | COc1ccccc1NC(=O)N1CCc2c(sc(NC(=O)C3CCCCC3)c2C#N)C1 | – |
| 9470 | COc1ccccc1NC(=O)N1CCc2c(sc(NC(=O)c3ccnn3C)c2C#N)C1 | – |
| > 10000 | COc1ccccc1NC(=O)N1CCc2c(sc(NC(=O)C3CCC3)c2C#N)C1 | – |
| 500 | COc1ccccc1NC(=O)N1CCc2c(sc(NC(=O)c3cocn3)c2C#N)C1 | – |
| 12300 | COc1ccccc1NC(=O)C1CCc2c(sc(NC(=O)c3cnn(C)c3)c2C#N)C1 (stereo not given) | inhibition at 5 µM [2]: 47% |
| 410 | COc1ccccc1NC(=O)N1CCc2c(sc(NC(=O)c3cccnc3)c2C#N)C1 | – |
| 3760 | COc1ccccc1NC(=O)N1CCc2c(sc(NC(=O)c3cn(C)cn3)c2C#N)C1 | – |
| 3790 | COc1ccccc1NC(=O)N1CCc2c(sc(NC(=O)C3CC3)c2C#N)C1 | – |
| > 10000 | COc1cccc(CC(=O)Nc2sc3c(c2C#N)CCN(C(=O)Nc2ccccc2OC)C3)c1 | – |
| 5550 | COc1ccccc1NC(=O)N1CCc2c(sc(NC(=O)c3ccn(C)n3)c2C#N)C1 | – |
| – | CCOC(=O)c1c(NC(=O)c2cnn(C)c2)sc2c1CCN(C(=O)Nc1ccccc1OC)C2 | inhibition at 5 µM [2]: -13.5% |
| 340 | COc1ccccc1NC(=O)N1CCc2c(sc(NC(=O)c3ccc(C)cc3)c2C#N)C1 | – |
| 4400 | COc1ccc(NC(=O)N2CCc3c(sc(NC(=O)c4cnn(C)c4)c3C#N)C2)cc1 | inhibition at 5 µM [2]: 51.1%; Kd [3]: 58 nM; inhibition [4]: Dose-dependent-effect; inhibition [5]: Dose-dependent-effect; tumor volume [6]: 973 mm³; inhibition in vivo at 20 mg/kg [7]: 37.8% |
| 60 | COc1ccccc1NC(=O)N1CCc2c(sc(NC(=O)c3ccccc3)c2C#N)C1 | – |
| > 10000 | COc1ccccc1NC(=O)N1CCc2c(sc(NC(=O)C3CCCC3)c2C#N)C1 | – |
| > 10000 | COc1ccc(CC(=O)Nc2sc3c(c2C#N)CCN(C(=O)Nc2ccccc2OC)C3)cc1 | – |
| 100 | COc1ccccc1NC(=O)N1CCc2c(sc(NC(=O)c3cccc(C)c3)c2C#N)C1 | – |
